Compound: CC1(C)CNc2cc(NC(=O)c3cccnc3NCc3ccncc3)ccc21 [Motesanib]
Assay: relative viability (nuclei count vs DMSO), 5 days (fraction); higher = more cells survive
Settings: 1 µM
Procedure, shortened: (§1)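 Viability is treated-well nuclei as a fraction of vehicle-well nuclei, reported as the median across plates. Before counting, lung cancer cell lines were kept overnight at 37 °C in 1536-well plates, pinned with five √10-spaced library-drug doses on vehicle-anchored plates, and left 5 days without medium change, then fixed, permeabilised and Hoechst-stained in one step, imaged at 4× and counted by MetaXpress. A plate passed only if control CV was below 25% and at least one doubling occurred.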

| Cell Line | relative viability |
| --- | --- |
| BEN | 1.19 |
| HARA | 0.997 |
| HCC-78 | 1.03 |
| NCI-H322M | 0.954 |
| LCLC-97TM1 | 0.999 |
| NCI-H2009 | 0.964 |
| A-427 | 1.06 |
| NCI-H661 | 0.964 |
| NCI-H1734 | 1.01 |
| NCI-H460 | 1 |
| NCI-H2347 | 1.04 |
| SK-LU-1 | 1.14 |
| NCI-H1395 | 0.924 |
| 201T | 0.963 |
| NCI-H1915 | 1.04 |
| HCC-827 | 1.09 |
| LXF-289 | 1.03 |

Compound: C[C@@]1(C(=O)Nc2ccc(F)nc2)CCCN1c1nc(Nc2cc(C3CC3)n[nH]2)c2cccn2n1
Assay: as above
Settings: 0.04 µM
Procedure, shortened: as §1

| Cell Line | relative viability |
| --- | --- |
| Calu-6 | 1.11 |
| HCC-366 | 1 |
| NCI-H1666 | 0.932 |
| NCI-H596 | 1.02 |
| LK-2 | 0.623 |
| NCI-H2087 | 0.954 |
| SK-MES-1 | 1.03 |
| H3255 | 1.05 |
| COR-L23 | 1.13 |
| COR-L 105 | 1.01 |
| IA-LM | 1.05 |
| LOU-NH91 | 0.94 |
| NCI-H2170 | 0.945 |
| NCI-H2405 | 0.917 |
| HOP-62 | 1.03 |
| HCC-44 | 0.99 |
| A549 | 0.869 |
| LU99A | 0.72 |

| Cell Line | relative viability |
| --- | --- |
| BEN | 1.09 |
| HARA | 0.815 |
| HCC-78 | 0.968 |
| NCI-H322M | 0.853 |
| LCLC-97TM1 | 0.824 |
| NCI-H2009 | 1.06 |
| A-427 | 1.09 |
| NCI-H661 | 1.04 |
| NCI-H1734 | 0.855 |
| NCI-H460 | 0.982 |
| NCI-H2347 | 1.03 |
| SK-LU-1 | 0.979 |
| NCI-H1395 | 0.916 |
| 201T | 0.955 |
| NCI-H1915 | 1 |
| HCC-827 | 1.02 |
| LXF-289 | 1.03 |

Same assay, conditions: 0.1265 µM

| Cell Line | relative viability |
| --- | --- |
| Calu-6 | 0.948 |
| HCC-366 | 0.98 |
| NCI-H1666 | 0.83 |
| NCI-H596 | 0.846 |
| LK-2 | 1.06 |
| NCI-H2087 | 0.815 |
| SK-MES-1 | 0.955 |
| H3255 | 0.954 |
| COR-L23 | 0.985 |
| COR-L 105 | 0.662 |
| IA-LM | 1 |
| LOU-NH91 | 0.94 |
| NCI-H2170 | 0.994 |
| NCI-H2405 | 0.816 |
| HOP-62 | 0.97 |
| HCC-44 | 0.904 |
| A549 | 0.693 |
| LU99A | 0.645 |

| Cell Line | relative viability |
| --- | --- |
| BEN | 0.959 |
| HARA | 1.01 |
| HCC-78 | 0.686 |
| NCI-H322M | 0.602 |
| LCLC-97TM1 | 0.356 |
| NCI-H2009 | 1.03 |
| A-427 | 0.944 |
| NCI-H661 | 1.04 |
| NCI-H1734 | 0.721 |
| NCI-H460 | 1.01 |
| NCI-H2347 | 0.922 |
| SK-LU-1 | 0.938 |
| NCI-H1395 | 0.825 |
| 201T | 0.833 |
| NCI-H1915 | 1.06 |
| HCC-827 | 1.01 |
| LXF-289 | 0.978 |

Same assay, conditions: 0.4 µM

| Cell Line | relative viability |
| --- | --- |
| Calu-6 | 0.884 |
| HCC-366 | 1.03 |
| NCI-H1666 | 0.773 |
| NCI-H596 | 0.902 |
| LK-2 | 0.508 |
| NCI-H2087 | 0.868 |
| SK-MES-1 | 0.796 |
| H3255 | 0.931 |
| COR-L23 | 0.886 |
| COR-L 105 | 0.781 |
| IA-LM | 0.863 |
| LOU-NH91 | 0.894 |
| NCI-H2170 | 0.958 |
| NCI-H2405 | 0.739 |
| HOP-62 | 0.914 |
| HCC-44 | 0.716 |
| A549 | 0.509 |
| LU99A | 0.6 |

| Cell Line | relative viability |
| --- | --- |
| BEN | 0.935 |
| HARA | 0.756 |
| HCC-78 | 0.496 |
| NCI-H322M | 0.644 |
| LCLC-97TM1 | 0.225 |
| NCI-H2009 | 0.936 |
| A-427 | 0.889 |
| NCI-H661 | 1.01 |
| NCI-H1734 | 0.651 |
| NCI-H460 | 1.01 |
| NCI-H2347 | 0.908 |
| SK-LU-1 | 0.854 |
| NCI-H1395 | 0.922 |
| 201T | 0.682 |
| NCI-H1915 | 0.982 |
| HCC-827 | 0.968 |
| LXF-289 | 0.997 |

Same assay, conditions: 1.265 µM

| Cell Line | relative viability |
| --- | --- |
| Calu-6 | 0.844 |
| HCC-366 | 0.753 |
| NCI-H1666 | 0.753 |
| NCI-H596 | 0.939 |
| LK-2 | 0.636 |
| NCI-H2087 | 0.819 |
| SK-MES-1 | 0.921 |
| H3255 | 0.882 |
| COR-L23 | 0.774 |
| COR-L 105 | 0.681 |
| IA-LM | 0.861 |
| LOU-NH91 | 0.841 |
| NCI-H2170 | 0.976 |
| NCI-H2405 | 0.671 |
| HOP-62 | 1.08 |
| HCC-44 | 0.737 |
| A549 | 0.589 |
| LU99A | 0.381 |

| Cell Line | relative viability |
| --- | --- |
| BEN | 0.929 |
| HARA | 0.723 |
| HCC-78 | 0.44 |
| NCI-H322M | 0.728 |
| LCLC-97TM1 | 0.143 |
| NCI-H2009 | 1 |
| A-427 | 0.797 |
| NCI-H661 | 0.875 |
| NCI-H1734 | 0.615 |
| NCI-H460 | 0.953 |
| NCI-H2347 | 0.967 |
| SK-LU-1 | 0.918 |
| NCI-H1395 | 0.755 |
| 201T | 0.796 |
| NCI-H1915 | 0.982 |
| HCC-827 | 1.07 |
| LXF-289 | 1.03 |
